From patent publication US10849886B2, “Combination therapy using azabicyclo compound for cancer” (TAIHO PHARMACEUTICAL CO., LTD., priority 2013, dated 2020) come the findings set out here.

In one series the test system is NCI-H441 tumor. The series can be described thus: Nude mouse xenograft, NSCLC NCI-H441, tumor growth (T/C). The conditions noted are these: Compound 1 5 mg/kg orally, paclitaxel 30 mg/kg intravenously on first day, alone or combined; test end date. In kind it is in vivo, nude mice.
Another series relates to NCI-H2170 tumor. The series can be described thus: Nude mouse xenograft, NSCLC NCI-H2170, tumor growth (T/C). To be noted: Compound 1 5 mg/kg orally, docetaxel 15 mg/kg intravenously on first day, alone or combined; RTV ratio to control on test end date. Format: in vivo, nude mice. How it is done: NCI-H2170 (ATCC #CRL-5928) as a human non-small cell lung cancer (NSCLC) cell line was obtained from American Type Culture Collection (ATCC; Manassas, Va., USA). In RPMI-1640 (containing 4.5 g/L of glucose, 10 mM of HEPES, and 1 mM of sodium pyruvate) (Wako Pure Chemical Industries, Ltd.) medium supplemented with 10% fetal bovine serum (FBS), cell lines were cultured. The cells cryopreserved in liquid nitrogen were quickly thawed at 37° C., transferred to a tissue culture flask containing a medium, and allowed to grow in a 5% CO2 incubator at 37° C. The NCI-H2170 cell lines were sub-cultured once to twice a week at a dilution ratio of 1:5 to 1:10. […]
Subsequently, the cell was allowed to grow for one to two weeks after transplantation until the tumor volume (TV) reached 100 to 300 mm^3. Digimatic Caliper was used in measurement of the tumor diameter, the major axis and the minor axis of the tumor were measured, and TV was calculated by the following formula. […]
Animals having an extremely small or large tumor volume were excluded and the remaining animals were allocated to each group by a stratified randomization allocation method using TV as an index. A relative tumor volume (RTV) was calculated from TV as an endpoint. […] RTV and T/C (%) were calculated by the following formula. […]

In a further series the test system is SBC-1 tumor. The series can be described thus: Nude mouse xenograft, small cell lung cancer line SBC-1, tumor growth (T/C). Format: in vivo, nude mice. The conditions noted are these: Compound 1 28 mg/kg orally on Days 1, 3, 5, 8, 10, 12, amrubicin […] intravenously on first day, alone or combined; test end date.
The test system of another series is NCI-N87 tumor. Nature of the series: Nude mouse xenograft, stomach cancer line NCI-N87, tumor growth (T/C). Format: in vivo, nude mice. The conditions noted are these: Compound 1 5 mg/kg orally, cisplatin 7 mg/kg intravenously on first day, alone or combined; test end date.
Series [1] is described as follows: Storage stability of Compound 1 suspension in 0.5% hypromellose aqueous solution. Format: physicochemical. To be noted: stored in refrigerator. How it is done:
In order to administer Compound 1, a 0.5% hypromellose aqueous solution was prepared. Hypromellose was weighed in a beaker, and distilled water (Otsuka Pharmaceutical Factory, Inc.) was added thereto in an amount of about 80% of the preparation amount. The mixture was completely dissolved by being stirred overnight using a stirrer at a low-temperature chamber, the resultant solution was transferred to a measuring cylinder, and distilled water was added to dilute to the preparation amount. Compound 1 was weighed in a necessary amount, pulverized with an agate mortar, suspended with a 0.5% hypromellose aqueous solution to have a predetermined concentration, and then subjected to ultrasonic treatment, thereby obtaining a homogeneous suspension. 10 mL of this suspension was administered orally per kg of body weight. Incidentally, the suspension was stored in a refrigerator at times other than administration.

Take `CC(=O)O[C@H]1C(=O)[C@@]2(C)[C@H]([C@H](OC(=O)c3ccccc3)[C@]3(O)C[C@H](OC(=O)[C@H](O)[C@@H](NC(=O)c4ccccc4)c4ccccc4)C(C)=C1C3(C)C)[C@]1(OC(C)=O)CO[C@@H]1C[C@@H]2O` [paclitaxel, reference compound]: in the series with NCI-H441 tumor, the T/C value was determined as 41%.
Take `CC(=O)O[C@@]12CO[C@@H]1C[C@H](O)[C@@]1(C)C(=O)[C@H](O)C3=C(C)[C@@H](OC(=O)[C@H](O)[C@@H](NC(=O)OC(C)(C)C)c4ccccc4)C[C@@](O)([C@@H](OC(=O)c4ccccc4)[C@H]21)C3(C)C` [docetaxel, reference compound]: the T/C value with NCI-H2170 tumor is reported as 86%.
In the case of `CCc1cc(C(N)=O)ccc1-n1nc(C(C)C)c2c(-n3cnc(-c4cnn(C)c4)c3)ccnc21` [Compound 1, 3-ethyl-4-{3-isopropyl-4-(4-(1-methyl-1H-pyrazol-4-yl)-1H-imidazol-1-yl)-1H-pyrazolo[3,4-b]pyridin-1-yl}benzamide], the T/C value was found to be 72% in the series on NCI-H2170 tumor, 49% with SBC-1 tumor, 51% in the series with NCI-N87 tumor and 63% in the series with NCI-H441 tumor. In series [1], the stability of suspension entry is recorded as “refrigerator-stable for two weeks”.
Take `CC(=O)[C@]1(N)Cc2c(O)c3c(c(O)c2[C@@H](O[C@H]2C[C@H](O)[C@H](O)CO2)C1)C(=O)c1ccccc1C3=O` [amrubicin, reference compound]: the T/C value in the series on SBC-1 tumor is reported as 40%.
For `N.N.[Cl][Pt][Cl]` [cisplatin, reference compound], in the series with NCI-N87 tumor, the T/C value was 65%.
